# Source: ChEMBL document CHEMBL5321272 (J Med Chem, 2023)
# Calls of active or inactive are those of the source. The rule behind the calls is not given here.
# Legend:
# MOLM-13 = test: Antiproliferative activity against human MOLM-13 cells assessed as reduction in cell viability incubated for 72 hrs by CellTiter 96 Aqueous One Solution Cell Proliferation Assay; type: functional, cell-based
# [1] = Selectivity ratio of IC50 for AMPK alpha2beta1gamma1 (unknown origin) to IC50 for FLT3-ITD mutant (unknown origin)
# [2] = target: Receptor-type tyrosine-protein kinase FLT3 (Homo sapiens) (UniProt P36888); test: Inhibition of FLT3 in human MV4-11 cells assessed as inhibition of AKT phosphorylation at Ser473 residue measured after 90 mins by western blot analysis; type: cell-based; details: dose 20-100 nM
# Chain of Receptor-type tyrosine-protein kinase FLT3 (Homo sapiens) (P36888 whole entry): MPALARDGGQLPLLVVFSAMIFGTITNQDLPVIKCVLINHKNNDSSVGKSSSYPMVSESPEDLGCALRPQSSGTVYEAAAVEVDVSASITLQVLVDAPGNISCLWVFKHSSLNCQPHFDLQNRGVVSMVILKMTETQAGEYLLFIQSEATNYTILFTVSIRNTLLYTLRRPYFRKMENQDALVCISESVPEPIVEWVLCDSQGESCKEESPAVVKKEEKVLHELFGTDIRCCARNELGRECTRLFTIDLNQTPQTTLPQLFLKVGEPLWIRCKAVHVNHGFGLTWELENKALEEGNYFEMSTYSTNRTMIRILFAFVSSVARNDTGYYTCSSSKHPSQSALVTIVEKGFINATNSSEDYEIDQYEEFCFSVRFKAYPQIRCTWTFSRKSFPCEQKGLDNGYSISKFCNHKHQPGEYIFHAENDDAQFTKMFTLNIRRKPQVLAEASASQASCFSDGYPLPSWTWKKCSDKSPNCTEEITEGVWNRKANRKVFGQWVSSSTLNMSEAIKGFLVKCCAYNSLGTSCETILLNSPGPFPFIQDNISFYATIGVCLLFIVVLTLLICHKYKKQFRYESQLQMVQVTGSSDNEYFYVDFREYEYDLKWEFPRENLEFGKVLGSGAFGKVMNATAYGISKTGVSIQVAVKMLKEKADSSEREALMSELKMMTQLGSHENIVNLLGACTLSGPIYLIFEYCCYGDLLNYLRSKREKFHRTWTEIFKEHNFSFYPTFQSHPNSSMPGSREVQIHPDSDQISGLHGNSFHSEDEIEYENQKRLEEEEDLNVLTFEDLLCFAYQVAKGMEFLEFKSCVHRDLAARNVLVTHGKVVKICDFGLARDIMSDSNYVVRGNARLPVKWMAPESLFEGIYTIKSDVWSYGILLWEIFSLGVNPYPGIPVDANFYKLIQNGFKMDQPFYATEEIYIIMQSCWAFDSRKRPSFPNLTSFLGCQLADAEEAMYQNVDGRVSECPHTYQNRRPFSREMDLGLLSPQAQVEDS
# [3] = Acute toxicity in ICR mouse assessed as body weight loss at 300 mg/kg, ig and measured for 7 days; type: organism-based; details: in vivo, po, 168 h, time 7 day
# [4] = AUC (last) in ICR mouse at 10 mg/kg, po; type: ADME, organism-based; set-up: dose 10 mg/kg, route po; details: in vivo
# [5] = Half life in ICR mouse at 10 mg/kg, po; type: ADME, organism-based; details: in vivo
# [6] = target: Receptor-type tyrosine-protein kinase FLT3 (Homo sapiens) (UniProt P36888); test: Inhibition of FLT3 in human MV4-11 cells assessed as inhibition of ERK phosphorylation at Tyr204 residue at 20 nM measured after 90 mins by western blot analysis; type: cell-based
# AMPK alpha2/beta1/gamma1 = AMPK alpha2/beta1/gamma1 (Homo sapiens, UniProt P54619+P54646+Q9Y478); test: Inhibition of AMPK alpha2beta1gamma1 (unknown origin) by HTRF assay; type: protein-complex assay
# Chain of AMPK alpha2/beta1/gamma1 (P54646 whole entry): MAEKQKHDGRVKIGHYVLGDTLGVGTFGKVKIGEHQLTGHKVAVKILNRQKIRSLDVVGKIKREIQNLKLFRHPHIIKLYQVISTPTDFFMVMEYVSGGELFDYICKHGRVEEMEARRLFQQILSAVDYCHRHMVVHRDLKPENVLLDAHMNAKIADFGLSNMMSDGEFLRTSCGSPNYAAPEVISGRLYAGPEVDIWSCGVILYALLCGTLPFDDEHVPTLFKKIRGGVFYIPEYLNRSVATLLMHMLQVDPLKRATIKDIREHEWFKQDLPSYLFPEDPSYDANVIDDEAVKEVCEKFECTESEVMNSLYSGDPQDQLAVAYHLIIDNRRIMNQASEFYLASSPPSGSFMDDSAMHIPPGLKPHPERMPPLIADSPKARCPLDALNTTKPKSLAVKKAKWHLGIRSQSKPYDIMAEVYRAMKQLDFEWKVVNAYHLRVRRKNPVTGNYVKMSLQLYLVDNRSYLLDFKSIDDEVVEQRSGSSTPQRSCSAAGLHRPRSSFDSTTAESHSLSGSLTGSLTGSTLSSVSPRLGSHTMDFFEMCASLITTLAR
# Chain of AMPK alpha2/beta1/gamma1 (P54619 whole entry): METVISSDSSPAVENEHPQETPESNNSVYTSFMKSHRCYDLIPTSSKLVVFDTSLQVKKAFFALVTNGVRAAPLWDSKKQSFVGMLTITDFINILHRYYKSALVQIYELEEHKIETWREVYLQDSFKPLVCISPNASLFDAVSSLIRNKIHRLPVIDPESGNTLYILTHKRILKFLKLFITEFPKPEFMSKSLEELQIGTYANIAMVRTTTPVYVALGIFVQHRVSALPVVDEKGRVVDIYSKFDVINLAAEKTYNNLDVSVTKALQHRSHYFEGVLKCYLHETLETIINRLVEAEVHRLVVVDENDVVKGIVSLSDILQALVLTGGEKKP
# Chain of AMPK alpha2/beta1/gamma1 (Q9Y478 whole entry): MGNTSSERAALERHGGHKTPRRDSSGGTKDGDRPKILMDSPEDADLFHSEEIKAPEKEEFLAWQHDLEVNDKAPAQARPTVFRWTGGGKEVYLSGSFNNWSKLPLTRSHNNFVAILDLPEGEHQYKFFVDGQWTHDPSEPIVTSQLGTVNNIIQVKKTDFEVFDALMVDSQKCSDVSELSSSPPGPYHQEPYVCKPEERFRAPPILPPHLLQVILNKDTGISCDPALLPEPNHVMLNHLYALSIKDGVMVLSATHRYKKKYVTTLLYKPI
# [7] = Selectivity ratio of IC50 for PIM1 (unknown origin) to IC50 for FLT3-ITD mutant (unknown origin)
# [8] = Selectivity ratio of IC50 for MET (unknown origin) to IC50 for FLT3-ITD mutant (unknown origin)
# [9] = Tmax in ICR mouse at 10 mg/kg, po; type: ADME, organism-based; details: in vivo
# [10] = Selectivity ratio of IC50 for inhibition of c-KIT (unknown origin) to IC50 for inhibition of FLT3 D835Y mutant (unknown origin)
# [11] = Selectivity ratio of IC50 for PAK1 (unknown origin) to IC50 for FLT3-ITD mutant (unknown origin)
structure (smiles),measurement,setting,value
CC(C)(O)CC(=O)N1CCc2cc(Nc3ncc(C(F)(F)F)c(N[C@H]4CC[C@@H](N)CC4)n3)ccc2C1,Activity,MOLM-13,Active
same,Ratio IC50,[1],> 100
same,inhibition,[2],Dose-Dependent Effect
same,Activity,[3],Non-Toxic
same,AUC(0-t),[4],1570 ng·h/mL
same,half-life,[5],5.6 h
same,inhibition,[6],100%
same,IC50,AMPK alpha2/beta1/gamma1,18.4 nM
same,Ratio IC50,[7],> 100
same,Ratio IC50,[8],> 100
same,Tmax,[9],2 h
same,Ratio IC50,[10],1740
same,Ratio IC50,[11],> 100
